Assay type in all cases: cell-based
Experiment [1] relates to HCV genotype 1a Y93H variant with tyrosine 93 changed to histidine in the NS5A protein. The experiment in a line: microbe, parasite or virus in culture. The conditions noted are these: genotype 1a Y93H replicon; test compound titrated with compound N47 fixed at 200 nM versus singly. As for the experimental part:
Combinations can be examined for synergistic activity using a variety of putative NS5A-targeting compounds and a variety of test compounds. […] The test compound can be chosen from compounds exemplified below, which were prepared by methods known in the art, or from others disclosed in the literature.
Similarly, BMS-790052 can be tested singly and in combination with a fixed amount of compound N47 in the HCV replicon cell based assay consisting of the genotype 1a Y93H variant with tyrosine 93 changed to histidine in the NS5A protein.
Background: Replicon systems follow genome replication, usually without infectious particles.

Experiment [2] deals with HCV genotype 1a L31V variant with leucine 31 changed to valine in the NS5A protein. The experiment in a line: microbe, parasite or virus in culture. The note with it: genotype 1a L31V replicon; test compound titrated with compound N47 fixed at 200 nM versus singly.
Experiment [3] relates to HCV genotype-1a variant with glutamine 30 changed to glutamate in the NS5A protein. The note with it: test compound titrated with BMS-790052 fixed at 200 nM; genotype 1a Q30E replicon. Put shortly: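 Synergy was assessed by combining several fixed amounts of an NS5A-targeting compound with a titration of the second compound of interest.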

In the case of `COC(=O)N[C@H](C(=O)N1CCC[C@H]1c1ncc(-c2ccc(-c3ccc(-c4cnc([C@@H]5CCCN5C(=O)[C@@H](NC(=O)OC)C(C)C)[nH]4)cc3)cc2)[nH]1)C(C)C`, in experiment [1], the “Fold-Synergistic G-1a (Y93H)” value is listed as over 100 fold. For the same molecule, the “Fold-Synergistic G-1a (L31V)” value in experiment [2] is on record as over 100 fold.

Regarding `COc1ccc(-c2ccc(-c3cnc([C@@H]4CCCN4C(=O)[C@@H](c4ccccc4)N(C)C)[nH]3)cc2)cc1-c1cnc([C@@H]2CCCN2C(=O)[C@@H](c2ccccc2)N(C)C)[nH]1`, the “Fold-Synergistic G-1a (Y93H)” value in experiment [1] was under 10 fold. Also, the “Fold-Synergistic G-1a (L31V)” value in experiment [2] is reported as under 10 fold.

As to `COC(=O)N[C@H](C(=O)N1CCC[C@H]1c1ncc(-c2ccc([C@H]3CC[C@@H](c4ccc(-c5cnc([C@@H]6CCCN6C(=O)[C@@H](NC(=O)OC)C(C)C)[nH]5)cc4)N3c3ccc(F)cc3)cc2)[nH]1)C(C)C`, in experiment [1], the “Fold-Synergistic G-1a (Y93H)” value is listed as over 10 fold.

On to `COC(=O)N[C@H](C(=O)N1CCC[C@H]1c1ncc(-c2ccc([C@H]3CC[C@H](c4ccc(-c5cnc([C@@H]6CCCN6C(=O)[C@@H](NC(=O)OC)C(C)C)[nH]5)cc4)N3c3ccc(F)cc3)cc2)[nH]1)C(C)C`, for which the “Fold-Synergistic G-1a (Y93H)” value in experiment [1] was over 10 fold.

Take `CC(C)[C@H](NC(=O)C1CCC(F)(F)CC1)c1ncc(-c2ccc(-c3ccc(-c4cnc([C@@H](NC(=O)C5CCC(F)(F)CC5)C(C)(C)C)[nH]4)cc3)cc2)[nH]1` [Compound Y-42]: the “Fold-Synergistic 1a (Q30E)” value in experiment [3] was over 100 fold.

As to `CC(C)[C@H](NC(=O)c1c(F)cccc1Cl)c1ncc(-c2ccc(-c3ccc(-c4cnc([C@@H](NC(=O)c5c(F)cccc5Cl)C(C)(C)C)[nH]4)cc3)cc2)[nH]1` [Compound Y-43], the “Fold-Synergistic 1a (Q30E)” value in experiment [3] is on record as over 100 fold.

As to `CC(C)[C@H](NC(=O)c1ccc(Cl)s1)c1ncc(-c2ccc(-c3ccc(-c4cnc([C@@H](NC(=O)c5ccc(Cl)s5)C(C)(C)C)[nH]4)cc3)cc2)[nH]1` [Compound Y-44], the “Fold-Synergistic 1a (Q30E)” value in experiment [3] is over 100 fold.

As for `CC(C)[C@H](NC(=O)c1ccc(C#N)s1)c1ncc(-c2ccc(-c3ccc(-c4cnc([C@@H](NC(=O)c5ccc(C#N)s5)C(C)(C)C)[nH]4)cc3)cc2)[nH]1` [Compound Y-45], the “Fold-Synergistic 1a (Q30E)” value in experiment [3] is on record as over 100 fold.

Turning to `CC(C)[C@H](NC(=O)c1cccc(Cl)c1)c1ncc(-c2ccc(-c3ccc(-c4cnc([C@@H](NC(=O)c5cccc(Cl)c5)C(C)(C)C)[nH]4)cc3)cc2)[nH]1` [Compound Y-46], the “Fold-Synergistic 1a (Q30E)” value in experiment [3] is listed as over 100 fold.

Turning to `CC(C)[C@H](NC(=O)c1ccc(C(F)(F)F)nc1)c1ncc(-c2ccc(-c3ccc(-c4cnc([C@@H](NC(=O)c5ccc(C(F)(F)F)nc5)C(C)(C)C)[nH]4)cc3)cc2)[nH]1` [Compound Y-47], the “Fold-Synergistic 1a (Q30E)” value in experiment [3] is given as over 100 fold.

For `CC(C)[C@H](NC(=O)C(C)(C)F)c1ncc(-c2ccc(-c3ccc(-c4cnc([C@@H](NC(=O)C(C)(C)F)C(C)(C)C)[nH]4)cc3)cc2)[nH]1` [Compound Y-48], in experiment [3], the “Fold-Synergistic 1a (Q30E)” value is listed as over 100 fold.

On to `COC(=O)N[C@H](C(=O)N1CCC[C@H]1c1nc(-c2ccc(-c3ccc(-c4c[nH]c([C@@H](NC(=O)C5CCC(F)(F)CC5)C(C)C)n4)cc3)cc2)c[nH]1)C(C)C` [Compound Y-49], for which the “Fold-Synergistic 1a (Q30E)” value in experiment [3] is given as over 100 fold.

Consider `CC(C)[C@H](NC(=O)OC(C)(C)C)c1ncc(-c2ccc(-c3ccc(-c4cnc([C@@H](NC(=O)C(C)(C)C)C(C)C)[nH]4)cc3)cc2)[nH]1` [Compound Y-51], for which the “Fold-Synergistic 1a (Q30E)” value in experiment [3] is reported as over 100 fold.

For `CC(C)[C@H](NC(=O)C1CCC(F)(F)CC1)c1ncc(-c2ccc(-c3ccc(-c4cnc([C@@H](NC(=O)C(C)(C)C)C(C)C)[nH]4)cc3)cc2)[nH]1` [Compound Y-52], the “Fold-Synergistic 1a (Q30E)” value in experiment [3] is listed as over 100 fold.

As for `CC(C)[C@H](NC(=O)c1ccc(C(F)(F)F)nc1)c1ncc(-c2ccc(-c3ccc(-c4cnc([C@@H](NC(=O)C(C)(C)C)C(C)C)[nH]4)cc3)cc2)[nH]1` [Compound Y-53], the “Fold-Synergistic 1a (Q30E)” value in experiment [3] is on record as over 100 fold.

For `CC(C)[C@H](NC(=O)c1cccc(Cl)c1)c1ncc(-c2ccc(-c3ccc(-c4cnc([C@@H](NC(=O)C(C)(C)C)C(C)C)[nH]4)cc3)cc2)[nH]1` [Compound Y-54], the “Fold-Synergistic 1a (Q30E)” value in experiment [3] was over 100 fold.

Regarding `CC(C)[C@H](NC(=O)[C@@H]1CCCCO1)c1ncc(-c2ccc(-c3ccc(-c4cnc([C@@H](NC(=O)[C@H]5CCCCO5)C(C)C)[nH]4)cc3)cc2)[nH]1` [Compound Y-56], in experiment [3], the “Fold-Synergistic 1a (Q30E)” value is given as over 100 fold.

`Cc1ccc(S(=O)(=O)NC(c2ncc(-c3ccc(-c4ccc(-c5cnc([C@@H](NS(=O)(=O)c6ccc(C)cc6)C(C)C)[nH]5)cc4)cc3)[nH]2)C(C)C)cc1` (stereo partly drawn) [Compound Y-58]: the “Fold-Synergistic 1a (Q30E)” value in experiment [3] is recorded as over 100 fold.

Take `CC(C)[C@H](N[S@@+]([O-])C(C)(C)C)c1ncc(-c2ccc(-c3ccc(-c4cnc([C@@H](N[S@+]([O-])C(C)(C)C)C(C)C)[nH]4)cc3)cc2)[nH]1` [Compound Y-60]: the “Fold-Synergistic 1a (Q30E)” value in experiment [3] is reported as over 100 fold.

For `CC(C)[C@H](N[S+]([O-])C(C)(C)C)c1ncc(-c2ccc(-c3ccc(-c4cnc([C@@H](N[S+]([O-])C(C)(C)C)C(C)C)[nH]4)cc3)cc2)[nH]1` (stereo partly drawn) [Compound Y-61], the “Fold-Synergistic 1a (Q30E)” value in experiment [3] was under 10 fold.

Regarding `CC(C)(C)C(=O)N[C@H](c1ncc(-c2ccc(-c3ccc(-c4cnc([C@@H](NC(=O)C(C)(C)C)C(C)(C)CF)[nH]4)cc3)cc2)[nH]1)C(C)(C)CF` [Compound Y-68], in experiment [3], the “Fold-Synergistic 1a (Q30E)” value was over 100 fold.

With `CC(C)(CF)[C@H](NC(=O)C1CCC(F)(F)CC1)c1ncc(-c2ccc(-c3ccc(-c4cnc([C@@H](NC(=O)C5CCC(F)(F)CC5)C(C)(C)CF)[nH]4)cc3)cc2)[nH]1` [Compound Y-69], the “Fold-Synergistic 1a (Q30E)” value in experiment [3] is over 100 fold.

For `CC(C)(C)[C@H](NC(=O)C1CCC(C(F)F)CC1)c1nc(-c2ccc(-c3ccc(-c4c[nH]c([C@@H](NC(=O)C5CCC(C(F)F)CC5)C(C)(C)C)n4)cc3)cc2)c[nH]1` (stereo partly drawn) [Compound Y-71], the “Fold-Synergistic 1a (Q30E)” value in experiment [3] is given as over 100 fold.

For `CC(C)(C)[C@H](NC(=O)c1ccccc1O)c1nc(-c2ccc(-c3ccc(-c4c[nH]c([C@@H](NC(=O)c5ccccc5O)C(C)(C)C)n4)cc3)cc2)c[nH]1` [Compound Y-72], the “Fold-Synergistic 1a (Q30E)” value in experiment [3] is recorded as over 100 fold.

For the molecule `CC(C)(C)[C@H](NC(=O)Cc1ccccc1OC(F)(F)F)c1nc(-c2ccc(-c3ccc(-c4c[nH]c([C@@H](NC(=O)Cc5ccccc5OC(F)(F)F)C(C)(C)C)n4)cc3)cc2)c[nH]1` [Compound Y-73], the “Fold-Synergistic 1a (Q30E)” value in experiment [3] is recorded as over 100 fold.

For `CC1(C(=O)NC(c2nc(-c3ccc(-c4ccc(-c5c[nH]c(C(NC(=O)C6(C)CC(F)(F)CCO6)C(C)(C)C)n5)cc4)cc3)c[nH]2)C(C)(C)C)CC(F)(F)CCO1` (stereo not drawn) [Compound Y-75], the “Fold-Synergistic 1a (Q30E)” value in experiment [3] is over 100 fold.

Turning to `CC(C)(C)[C@H](NC(=O)[C@@]1(C)CC(F)(F)CO1)c1nc(-c2ccc(-c3ccc(-c4c[nH]c([C@@H](NC(=O)[C@@]5(C)CC(F)(F)CO5)C(C)(C)C)n4)cc3)cc2)c[nH]1` [Compound Y-77], in experiment [3], the “Fold-Synergistic 1a (Q30E)” value is recorded as over 100 fold.

Consider `CC(C)(C)[C@H](NC(=O)[C@@]1(C)CCC(F)(F)CO1)c1ncc(-c2ccc(-c3ncc(-c4cnc([C@@H](NC(=O)[C@@]5(C)CCC(F)(F)CO5)C(C)(C)C)[nH]4)cn3)cc2)[nH]1` [Compound Y-84, (R)—N—((S)-1-(5-(2-(4-(2-((S)-1-((R)-5,5-difluoro-2-methyltetrahydro-2H-pyran-2-carboxamido)-2,2-dimethylpropyl)-1H-imidazol-5-yl)phenyl)pyrimidin-5-yl)-1H-imidazol-2-yl)-2,2-dimethylpropyl)-5,5-difluoro-2-methyltetrahydro-2H-pyran-2-carboxamide], for which the “Fold-Synergistic 1a (Q30E)” value in experiment [3] is reported as over 100 fold.

For `CC(C)(C)[C@H](NC(=O)[C@@]1(C)CCC(F)(F)CO1)c1nc(-c2ccc(-c3ccc(-c4c[nH]c([C@@H]5CCCN5C(=O)c5nccc6c(Cl)cccc56)n4)cc3)cc2)c[nH]1` [Compound Y-85, (R)—N—((S)-1-(4-(4′-(2-((S)-1-(5-chloroisoquinoline-1-carbonyl)pyrrolidin-2-yl)-1H-imidazol-4-yl)-[1,1′-biphenyl]-4-yl)-1H-imidazol-2-yl)-2,2-dimethylpropyl)-5,5-difluoro-2-methyltetrahydro-2H-pyran-2-carboxamide], the “Fold-Synergistic 1a (Q30E)” value in experiment [3] is listed as over 100 fold.

Turning to `CC1(C(=O)NC(c2nc(-c3ccc(-c4ccc(-c5c[nH]c(C(NC(=O)C6(C)CCCCCO6)C(C)(C)C)n5)cc4)cc3)c[nH]2)C(C)(C)C)CCCCCO1` (stereo not drawn) [Compound Y-91], in experiment [3], the “Fold-Synergistic 1a (Q30E)” value is listed as over 100 fold.

Take `CC1(C(=O)NC(c2nc(-c3ccc(-c4ccc(-c5c[nH]c(C(NC(=O)C6(C)CCCC(F)(F)CO6)C(C)(C)C)n5)cc4)cc3)c[nH]2)C(C)(C)C)CCCC(F)(F)CO1` (stereo not drawn) [Compound Y-92]: the “Fold-Synergistic 1a (Q30E)” value in experiment [3] is recorded as over 100 fold.

For the molecule `CC1(C(=O)N[C@H](c2ncc(-c3ccc(-c4ccc(-c5cnc([C@@H](NC(=O)C6(C)CCCCC6O)C(C)(C)C)[nH]5)cc4)cc3)[nH]2)C(C)(C)C)CCCCC1O` (stereo partly drawn) [Compound Y-97], in experiment [3], the “Fold-Synergistic 1a (Q30E)” value is over 100 fold.

Turning to `CC1([C@H](NC(=O)C2(C)CCCC[C@@H]2O)c2ncc(-c3ccc(-c4ccc(-c5cnc([C@@H](NC(=O)C6(C)CCCC[C@@H]6O)C6(C)CC6)[nH]5)cc4)cc3)[nH]2)CC1` (stereo partly drawn) [Compound Y-116], in experiment [3], the “Fold-Synergistic 1a (Q30E)” value is reported as over 100 fold.

With `COC(c1ccccc1)C1(C(=O)N[C@H](c2nc(-c3ccc(-c4ccc(-c5c[nH]c([C@@H](NC(=O)C6(C(OC)c7ccccc7)CC6)C(C)(C)C)n5)cc4)cc3)c[nH]2)C(C)(C)C)CC1` (stereo partly drawn) [Example N-137], the “Fold-Synergistic 1a (Q30E)” value in experiment [3] is recorded as under 10 fold.

The values above are taken from US20160158200A1, “Combinations of Hepatitis C Virus Inhibitors” (priority 2013, published 2016).
